“Also recorded” adds a separate entry of the source. Like-named read-outs stand apart in the source and are kept apart here.
Legend:
TA100 = assay: Background bacterial cytotoxicity assay; design: species or system Salmonella; key to Flag: A cytotoxicity value of less than 60% is flagged and the compound is considered as toxic (denoted as Cytox.); A hyphen (-) denotes no cytotoxicity at the respective concentration
Experimental: (§1) Compounds were assessed for mutagenicity at the Eurofins Panlabs in 384-well plates using four Salmonella strains: TA98, to probe for frameshift mutation (with quercetin as control), TA100 and TA1535, to probe for base pair insertions/deletions (with streptozotocin as control), and TA1537, to probe for frameshift mutations (with aminacridine as control) as previously described.[78] Each compound was incubated at 37 °C for 96 h at four different concentrations (5, 10, 50, and 100 μM), with each concentration tested using 48 replicates, both with and without rat liver S9 metabolic activation. A concurrent bacterial cytotoxicity assay was run at 0.6, 1.2, 2.5, 5, 10, 25, 50, and 100 μM to rule out false negatives. Bacterial cytotoxicity was expressed as percent of control growth (OD650). Compounds with growth of less than 60% control were flagged and considered bacterial cytotoxic. […] Significances of the positive counts between the treatment and control were determined using a one-tailed Fisher’s exact test.

TA1537 = assay: Background bacterial cytotoxicity assay; design: species or system Salmonella; key to Flag: A cytotoxicity value of less than 60% is flagged and the compound is considered as toxic (denoted as Cytox.); A hyphen (-) denotes no cytotoxicity at the respective concentration
Experimental: as §1

TA1535 = assay: Background bacterial cytotoxicity assay; design: species or system Salmonella; key to Flag: A cytotoxicity value of less than 60% is flagged and the compound is considered as toxic (denoted as Cytox.); A hyphen (-) denotes no cytotoxicity at the respective concentration
Experimental: as §1

TA98 = assay: Background bacterial cytotoxicity assay; design: species or system Salmonella; key to Flag: A cytotoxicity value of less than 60% is flagged and the compound is considered as toxic (denoted as Cytox.); A hyphen (-) denotes no cytotoxicity at the respective concentration
Experimental: as §1

ERBB4 = target: T1, ERBB4 (Homo sapiens, UniProt Q15303); assay: KinaseProfiler enzymatic radiometric assay; type: biochemical; details: read-out: Kinase IC50
T1 construct: purchased Eurofins Cerep (KinaseProfiler, contract assay)
T1 sequence (Q15303 26-1308): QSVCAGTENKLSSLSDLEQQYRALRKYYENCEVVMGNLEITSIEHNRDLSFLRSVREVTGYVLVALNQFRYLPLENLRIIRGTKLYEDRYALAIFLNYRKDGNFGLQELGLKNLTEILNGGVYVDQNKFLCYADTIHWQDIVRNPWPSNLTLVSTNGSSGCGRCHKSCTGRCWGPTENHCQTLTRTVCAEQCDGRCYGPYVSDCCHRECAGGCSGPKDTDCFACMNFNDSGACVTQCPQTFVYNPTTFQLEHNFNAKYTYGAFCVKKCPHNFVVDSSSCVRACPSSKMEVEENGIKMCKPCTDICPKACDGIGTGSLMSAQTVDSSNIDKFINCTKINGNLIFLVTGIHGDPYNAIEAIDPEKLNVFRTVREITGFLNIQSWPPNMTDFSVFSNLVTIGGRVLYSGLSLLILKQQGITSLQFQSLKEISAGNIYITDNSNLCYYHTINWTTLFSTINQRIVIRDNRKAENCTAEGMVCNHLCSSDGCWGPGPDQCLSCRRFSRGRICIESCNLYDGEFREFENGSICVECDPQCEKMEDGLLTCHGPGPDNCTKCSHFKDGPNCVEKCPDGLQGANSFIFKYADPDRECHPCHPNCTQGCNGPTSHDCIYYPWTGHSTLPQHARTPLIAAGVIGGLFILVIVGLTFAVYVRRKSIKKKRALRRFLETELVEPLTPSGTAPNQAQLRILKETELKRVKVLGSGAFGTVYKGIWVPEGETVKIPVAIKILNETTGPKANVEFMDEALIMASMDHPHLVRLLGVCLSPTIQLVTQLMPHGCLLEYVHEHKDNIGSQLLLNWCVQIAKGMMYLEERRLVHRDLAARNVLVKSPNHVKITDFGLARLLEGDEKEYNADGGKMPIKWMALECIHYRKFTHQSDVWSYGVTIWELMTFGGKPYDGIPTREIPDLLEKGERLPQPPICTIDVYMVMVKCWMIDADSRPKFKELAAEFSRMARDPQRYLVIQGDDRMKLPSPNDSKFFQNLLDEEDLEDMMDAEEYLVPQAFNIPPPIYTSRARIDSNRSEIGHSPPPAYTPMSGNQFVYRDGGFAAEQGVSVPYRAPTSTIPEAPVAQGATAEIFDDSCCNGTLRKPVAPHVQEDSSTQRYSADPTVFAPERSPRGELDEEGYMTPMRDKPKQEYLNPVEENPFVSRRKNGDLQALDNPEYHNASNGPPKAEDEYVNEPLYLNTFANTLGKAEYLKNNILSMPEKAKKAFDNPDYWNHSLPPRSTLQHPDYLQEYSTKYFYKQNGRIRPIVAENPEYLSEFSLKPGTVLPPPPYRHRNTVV
Experimental: (§2) In vitro kinase activity (inhibitor binding constants (Kd) and biochemical inhibition (IC50’s)) were assessed by Eurofins DiscoverX (Kd determinations) and Eurofins Cerep (biochemical IC50 determinations).

BCR-ABLwt = BCR-ABLwt (Homo sapiens, UniProt P00519); assay: KinaseProfiler enzymatic radiometric assay; type: biochemical; details: read-out: Kinase IC50
Experimental: as §2

LYN = target: T2, LYN (Homo sapiens, UniProt P07948); assay: KinaseProfiler enzymatic radiometric assay; type: biochemical; details: read-out: Kinase IC50
T2 construct: purchased Eurofins DiscoverX (contract assay)
T2 sequence (P07948 whole entry): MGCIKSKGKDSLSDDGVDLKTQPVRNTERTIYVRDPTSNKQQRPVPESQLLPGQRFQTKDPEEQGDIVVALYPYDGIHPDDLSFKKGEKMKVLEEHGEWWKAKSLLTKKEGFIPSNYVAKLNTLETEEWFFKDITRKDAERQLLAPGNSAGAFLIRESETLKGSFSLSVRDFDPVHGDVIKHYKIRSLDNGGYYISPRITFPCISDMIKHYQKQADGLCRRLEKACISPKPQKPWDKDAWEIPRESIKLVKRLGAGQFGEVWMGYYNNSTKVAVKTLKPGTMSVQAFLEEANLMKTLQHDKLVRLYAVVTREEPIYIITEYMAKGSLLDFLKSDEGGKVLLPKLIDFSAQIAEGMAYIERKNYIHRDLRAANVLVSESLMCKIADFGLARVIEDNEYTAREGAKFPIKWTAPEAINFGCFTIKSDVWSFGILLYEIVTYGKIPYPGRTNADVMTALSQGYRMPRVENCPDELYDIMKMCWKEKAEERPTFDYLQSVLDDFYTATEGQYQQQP
Experimental: as §2

YANK1 = target: T3, YANK1 (Homo sapiens, UniProt Q8WU08); assay: KINOMEScan; type: binding; details: YANK1, 1 µM; read-out: Percent Control
T3 construct: purchased Eurofins DiscoverX (KINOMEScan service)
T3 sequence (Q8WU08 whole entry): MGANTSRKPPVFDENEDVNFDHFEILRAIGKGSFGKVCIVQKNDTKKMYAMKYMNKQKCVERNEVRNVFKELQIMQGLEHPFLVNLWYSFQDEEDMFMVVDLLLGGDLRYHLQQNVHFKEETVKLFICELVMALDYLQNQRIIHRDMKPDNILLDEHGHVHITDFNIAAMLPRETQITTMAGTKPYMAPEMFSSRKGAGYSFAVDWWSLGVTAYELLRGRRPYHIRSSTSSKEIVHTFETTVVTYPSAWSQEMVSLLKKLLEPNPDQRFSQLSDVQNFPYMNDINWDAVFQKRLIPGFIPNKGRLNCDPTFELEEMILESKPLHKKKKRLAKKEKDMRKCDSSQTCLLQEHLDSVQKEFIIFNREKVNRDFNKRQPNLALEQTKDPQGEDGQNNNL
Description: (§3) Percent control was mapped onto the kinome tree using TREEspot.

CYP2D6 = CYP2D6 (Homo sapiens, UniProt P10635); assay: CYP2D6 time-dependent inhibition in human liver microsomes; details: for Inhibition percentage(%) at Top conc. / IC50: liver microsomes; for IC50: read-out: CYP2D6 IC50
Chain of CYP2D6 (P10635 whole entry): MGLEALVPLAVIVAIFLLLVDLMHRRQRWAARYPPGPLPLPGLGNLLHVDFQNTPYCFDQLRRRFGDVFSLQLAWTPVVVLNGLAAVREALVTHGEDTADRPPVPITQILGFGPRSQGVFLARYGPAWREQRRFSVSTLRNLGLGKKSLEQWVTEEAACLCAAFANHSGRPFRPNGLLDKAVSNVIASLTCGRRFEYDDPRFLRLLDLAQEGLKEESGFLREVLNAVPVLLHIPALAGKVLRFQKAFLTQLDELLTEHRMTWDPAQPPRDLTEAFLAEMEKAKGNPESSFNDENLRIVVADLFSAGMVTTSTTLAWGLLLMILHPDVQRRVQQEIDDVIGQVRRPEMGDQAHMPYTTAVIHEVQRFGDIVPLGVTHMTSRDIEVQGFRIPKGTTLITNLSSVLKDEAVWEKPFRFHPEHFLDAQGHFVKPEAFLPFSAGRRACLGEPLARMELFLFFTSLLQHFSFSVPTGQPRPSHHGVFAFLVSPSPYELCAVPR

BIKE = target: T4, BIKE (Homo sapiens, UniProt Q9NSY1); assay: KINOMEScan; type: binding; details: read-out: Percent Control
T4 construct: purchased Eurofins DiscoverX (KINOMEscan)
Description: as §3

AKT3 = target: T5, AKT3 (Homo sapiens, UniProt Q9Y243); assay: KINOMEScan; type: binding; details: AKT3, 1 µM; read-out: Percent Control
T5 construct: purchased Eurofins DiscoverX (KINOMEscan)
Description: as §3

BMPR1A = target: T6, BMPR1A (Homo sapiens, UniProt P36894); assay: KINOMEScan; type: binding; details: read-out: Percent Control
T6 construct: purchased Eurofins DiscoverX (KINOMEscan)
T6 sequence (P36894 24-532): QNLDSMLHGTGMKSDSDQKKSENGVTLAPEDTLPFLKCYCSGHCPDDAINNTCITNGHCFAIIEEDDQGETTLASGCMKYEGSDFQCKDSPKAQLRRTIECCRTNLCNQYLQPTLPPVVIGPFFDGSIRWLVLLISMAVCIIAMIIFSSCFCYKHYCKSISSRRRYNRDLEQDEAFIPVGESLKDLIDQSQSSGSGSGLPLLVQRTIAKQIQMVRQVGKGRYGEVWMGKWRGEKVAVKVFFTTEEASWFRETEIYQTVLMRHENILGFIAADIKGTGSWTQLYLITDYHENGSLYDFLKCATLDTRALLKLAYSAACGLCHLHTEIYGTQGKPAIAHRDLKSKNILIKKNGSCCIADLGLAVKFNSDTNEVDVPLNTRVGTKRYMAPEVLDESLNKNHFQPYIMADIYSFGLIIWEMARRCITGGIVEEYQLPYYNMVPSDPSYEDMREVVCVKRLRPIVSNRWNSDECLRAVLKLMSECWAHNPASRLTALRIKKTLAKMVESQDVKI
Description: as §3

EGFRwt = target: T7, EGFRwt (Homo sapiens, UniProt P00533); assay: KINOMEScan; type: binding; details: read-out: Percent Control
T7 construct: purchased Eurofins DiscoverX (contract assay)
T7 sequence (P00533 25-1210): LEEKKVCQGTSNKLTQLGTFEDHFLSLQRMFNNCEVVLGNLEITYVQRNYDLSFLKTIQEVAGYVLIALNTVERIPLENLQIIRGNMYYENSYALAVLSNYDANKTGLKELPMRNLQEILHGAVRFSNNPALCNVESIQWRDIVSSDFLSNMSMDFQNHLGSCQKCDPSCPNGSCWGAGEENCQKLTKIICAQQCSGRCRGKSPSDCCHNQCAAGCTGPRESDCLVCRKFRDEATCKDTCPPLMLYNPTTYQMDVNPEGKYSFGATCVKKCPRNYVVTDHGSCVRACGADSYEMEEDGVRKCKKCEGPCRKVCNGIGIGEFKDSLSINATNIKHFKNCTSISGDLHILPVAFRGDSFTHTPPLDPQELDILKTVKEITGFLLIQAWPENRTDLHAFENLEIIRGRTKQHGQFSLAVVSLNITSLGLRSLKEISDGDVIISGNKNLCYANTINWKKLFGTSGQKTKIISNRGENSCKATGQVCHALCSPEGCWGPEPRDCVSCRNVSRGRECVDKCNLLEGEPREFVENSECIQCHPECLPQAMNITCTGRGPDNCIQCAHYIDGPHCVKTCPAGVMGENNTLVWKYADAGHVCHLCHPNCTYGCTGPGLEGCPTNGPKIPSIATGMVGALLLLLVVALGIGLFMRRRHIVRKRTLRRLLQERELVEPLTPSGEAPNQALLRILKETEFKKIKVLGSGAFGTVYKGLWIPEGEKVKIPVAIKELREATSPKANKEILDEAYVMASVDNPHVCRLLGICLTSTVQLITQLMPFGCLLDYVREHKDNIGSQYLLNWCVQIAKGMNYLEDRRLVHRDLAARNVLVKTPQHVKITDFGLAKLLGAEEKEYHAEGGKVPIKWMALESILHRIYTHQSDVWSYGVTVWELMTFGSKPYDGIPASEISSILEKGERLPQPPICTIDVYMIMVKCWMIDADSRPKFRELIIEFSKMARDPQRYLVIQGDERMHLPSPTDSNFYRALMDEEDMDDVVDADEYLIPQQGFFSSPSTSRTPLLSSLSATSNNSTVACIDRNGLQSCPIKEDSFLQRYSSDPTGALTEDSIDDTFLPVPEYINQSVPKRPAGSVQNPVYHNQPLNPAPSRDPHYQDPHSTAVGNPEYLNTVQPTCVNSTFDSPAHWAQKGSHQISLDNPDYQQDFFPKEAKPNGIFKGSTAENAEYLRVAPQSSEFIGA
Description: as §3

[1] = target: T8, ABL1(H396P)-nonphosphorylated (Homo sapiens, UniProt P00519, H396P); assay: KINOMEScan; type: binding; details: read-out: Percent Control
T8 construct: purchased Eurofins DiscoverX
Description: as §3

AMPK-alpha2 = target: T9, AMPK-alpha2 (Homo sapiens, UniProt P54646); assay: KINOMEScan; type: binding; details: AMPK-alpha2, 1 µM; read-out: Percent Control
T9 construct: purchased Eurofins DiscoverX (KINOMEscan)
T9 sequence (P54646 whole entry): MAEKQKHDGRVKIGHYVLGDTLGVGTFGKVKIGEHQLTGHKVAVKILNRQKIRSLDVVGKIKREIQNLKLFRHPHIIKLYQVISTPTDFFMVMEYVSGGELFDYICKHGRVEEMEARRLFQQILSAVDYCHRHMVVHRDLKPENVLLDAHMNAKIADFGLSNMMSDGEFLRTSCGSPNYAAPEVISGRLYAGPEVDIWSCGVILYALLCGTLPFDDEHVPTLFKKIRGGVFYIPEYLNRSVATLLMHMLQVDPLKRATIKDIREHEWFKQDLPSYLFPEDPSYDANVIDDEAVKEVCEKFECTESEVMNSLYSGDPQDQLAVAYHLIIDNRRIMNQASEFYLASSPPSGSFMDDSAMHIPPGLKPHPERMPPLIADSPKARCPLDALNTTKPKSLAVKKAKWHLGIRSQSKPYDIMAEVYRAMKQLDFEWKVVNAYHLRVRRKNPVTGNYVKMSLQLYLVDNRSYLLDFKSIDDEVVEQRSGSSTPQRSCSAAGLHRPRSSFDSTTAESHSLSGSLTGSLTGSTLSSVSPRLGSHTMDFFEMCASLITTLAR
Description: as §3

COc1cc2ncnc(Nc3cccc(Cl)c3F)c2cc1OCCON1CCN(C)CC1 [Compound 9, N-(3-Chloro-2-fluorophenyl)-7-methoxy-6-(2-((4-methylpiperazin-1-yl)oxy)ethoxy)quinazolin-4-amine]
Flag (TA100; TA100-S9, 1.0E-04 M): Cytox. (A cytotoxicity value of less than 60% is flagged and the compound is considered as toxic (denoted as Cytox.))
Mean % Control (n = 3) (TA100; TA100-S9, 1.0E-04 M): 34.0%
Flag (TA100; TA100-S9, 1.0E-05 M): -
Mean % Control (n = 3) (TA100; TA100-S9, 1.0E-05 M): 90.3%
Flag (TA100; TA100-S9, 1.2E-06 M): -
Mean % Control (n = 3) (TA100; TA100-S9, 1.2E-06 M): 91.2%
Flag (TA100; TA100-S9, 2.5E-05 M): -
Mean % Control (n = 3) (TA100; TA100-S9, 2.5E-05 M): 80.9%
Flag (TA100; TA100-S9, 2.5E-06 M): -
Mean % Control (n = 3) (TA100; TA100-S9, 2.5E-06 M): 89.5%
Flag (TA100; TA100-S9, 5.0E-05 M): -
Mean % Control (n = 3) (TA100; TA100-S9, 5.0E-05 M): 67.3%
Flag (TA100; TA100-S9, 5.0E-06 M): -
Mean % Control (n = 3) (TA100; TA100-S9, 5.0E-06 M): 93.2%
Flag (TA100; TA100-S9, 6.0E-07 M): -
Mean % Control (n = 3) (TA100; TA100-S9, 6.0E-07 M): 91.6%
Flag (TA1537; TA1537-S9, 1.0E-04 M): -
Mean % Control (n = 3) (TA1537; TA1537-S9, 1.0E-04 M): 60.3%
Flag (TA1537; TA1537-S9, 1.0E-05 M): -
Mean % Control (n = 3) (TA1537; TA1537-S9, 1.0E-05 M): 88.7%
Flag (TA1537; TA1537-S9, 1.2E-06 M): -
Mean % Control (n = 3) (TA1537; TA1537-S9, 1.2E-06 M): 98.4%
Flag (TA1537; TA1537-S9, 2.5E-05 M): -
Mean % Control (n = 3) (TA1537; TA1537-S9, 2.5E-05 M): 83.8%
Flag (TA1537; TA1537-S9, 2.5E-06 M): -
Mean % Control (n = 3) (TA1537; TA1537-S9, 2.5E-06 M): 90.5%
Flag (TA1537; TA1537-S9, 5.0E-05 M): -
Mean % Control (n = 3) (TA1537; TA1537-S9, 5.0E-05 M): 71.1%
Flag (TA1537; TA1537-S9, 5.0E-06 M): -
Mean % Control (n = 3) (TA1537; TA1537-S9, 5.0E-06 M): 98.8%
Flag (TA1537; TA1537-S9, 6.0E-07 M): -
Mean % Control (n = 3) (TA1537; TA1537-S9, 6.0E-07 M): 101.7%
Flag (TA1535; TA1535-S9, 1.0E-04 M): -
Mean % Control (n = 3) (TA1535; TA1535-S9, 1.0E-04 M): 78.4%
Flag (TA1535; TA1535-S9, 1.0E-05 M): -
Mean % Control (n = 3) (TA1535; TA1535-S9, 1.0E-05 M): 99.4%
Flag (TA1535; TA1535-S9, 1.2E-06 M): -
Mean % Control (n = 3) (TA1535; TA1535-S9, 1.2E-06 M): 120.4%
Flag (TA1535; TA1535-S9, 2.5E-05 M): -
Mean % Control (n = 3) (TA1535; TA1535-S9, 2.5E-05 M): 97.6%
Flag (TA1535; TA1535-S9, 2.5E-06 M): -
Mean % Control (n = 3) (TA1535; TA1535-S9, 2.5E-06 M): 101.2%
Flag (TA1535; TA1535-S9, 5.0E-05 M): -
Mean % Control (n = 3) (TA1535; TA1535-S9, 5.0E-05 M): 85.7%
Flag (TA1535; TA1535-S9, 5.0E-06 M): -
Mean % Control (n = 3) (TA1535; TA1535-S9, 5.0E-06 M): 108.1%
Flag (TA1535; TA1535-S9, 6.0E-07 M): -
Mean % Control (n = 3) (TA1535; TA1535-S9, 6.0E-07 M): 98.9%
Flag (TA98; TA98-S9, 1.0E-04 M): -
Mean % Control (n = 3) (TA98; TA98-S9, 1.0E-04 M): 84.2%
Flag (TA98; TA98-S9, 1.0E-05 M): -
Mean % Control (n = 3) (TA98; TA98-S9, 1.0E-05 M): 91.1%
Flag (TA98; TA98-S9, 1.2E-06 M): -
Mean % Control (n = 3) (TA98; TA98-S9, 1.2E-06 M): 92.3%
Flag (TA98; TA98-S9, 2.5E-05 M): -
Mean % Control (n = 3) (TA98; TA98-S9, 2.5E-05 M): 94.8%
Flag (TA98; TA98-S9, 2.5E-06 M): -
Mean % Control (n = 3) (TA98; TA98-S9, 2.5E-06 M): 91.7%
Flag (TA98; TA98-S9, 5.0E-05 M): -
Mean % Control (n = 3) (TA98; TA98-S9, 5.0E-05 M): 87.8%
Flag (TA98; TA98-S9, 5.0E-06 M): -
Mean % Control (n = 3) (TA98; TA98-S9, 5.0E-06 M): 95.7%
Flag (TA98; TA98-S9, 6.0E-07 M): -
Mean % Control (n = 3) (TA98; TA98-S9, 6.0E-07 M): 89.0%
IC50 (ERBB4): 330 nM
IC50 (BCR-ABLwt): 976 nM
IC50 (LYN): 58 nM
remaining binding at 1 µM (YANK1): 94%
CYP 2D6 TDI (CYP2D6; IC50-shift, human liver microsomes and primary human hepatocytes): Negative; also recorded: not to be time-dependent
Inhibition percentage(%) at Top conc. (CYP2D6; 0 min): 78.15%
Inhibition percentage(%) at Top conc. (CYP2D6; 30 min with NADPH): 74.73%
Inhibition percentage(%) at Top conc. (CYP2D6; 30 min without NADPH): 78.78%
IC50 (CYP2D6; 30 min with NADPH): 1820 nM
IC50 (CYP2D6; 30 min without NADPH): 1160 nM
IC50 (CYP2D6; pre-incubation 0 min): 1050 nM
remaining binding at 1 µM (BIKE): 99%
remaining binding at 1 µM (AKT3): 68%
remaining binding at 1 µM (BMPR1A): 90%
remaining binding at 1 µM (EGFRwt): 0.3%
remaining binding at 1 µM [1]: 1%
remaining binding at 1 µM (AMPK-alpha2): 97%

Reference: paper PMC10683025, “Discovery of a Hydroxylamine-Based Brain-Penetrant EGFR Inhibitor for Metastatic Non-Small-Cell Lung Cancer” (Journal of Medicinal Chemistry, 2023)
